Test results published in patent publication US20170121322A1, “BET-PROTEIN INHIBITING 3,4-DIHYDROPYRIDO[2,3-B]PYRAZINONES WITH META-SUBSTITUTED AROMATIC AMINO- OR ETHER GROUPS” (Bayer Pharma Aktiengesellschaft, priority 2014, published 2017).

These compounds were tested against T1, BRD4 bromo domain 1 [BRD4(1)] (Homo sapiens, UniProt O60885) (assay: BRD4(1)/acetylated peptide H4 TR-FRET binding assay). Settings: His6-BRD4(1) (aa 67-152) vs acetylated histone H4 peptide.
T1 construct: N-terminally His6-tagged BRD4(1) (amino acids 67-152); made in house; host or cells: E. coli
Source text: To assess the BRD4(1) binding strength of the substances described in this application, the ability thereof to inhibit the interaction between BRD4(1) and acetylated histone H4 in a dose-dependent manner was quantified.
For this purpose, a time-resolved fluorescence resonance energy transfer (TR-FRET) assay was used, which measures the binding between N-terminally His6-tagged BRD4(1) (amino acids 67-152) and a synthetic acetylated histone H4 (Ac-H4) peptide with sequence GRGK(Ac)GGK(Ac)GLGK(Ac)GGAK(Ac)RHGSGSK-biotin. The recombinant BRD4(1) protein produced in-house according to Filippakopoulos et al., Cell, 2012, 149:214-231 was expressed in E. coli and purified by means of (Ni-NTA) affinity and (Sephadex G-75) size exclusion chromatography. The Ac-H4 peptide can be purchased, for example, from Biosyntan (Berlin, Germany).
In the assay, typically 11 different concentrations of each substance (0.1 nM, 0.33 nM, 1.1 nM, 3.8 nM, 13 nM, 44 nM, 0.15 μM, 0.51 μM, 1.7 μM, 5.9 μM and 20 μM) were analysed as duplicates on the same microtitre plate. For this purpose, 100-fold concentrated solutions in DMSO were prepared by serial dilutions (1:3.4) of a 2 mM stock solution into a clear, 384-well microtitre plate (Greiner Bio-One, Frickenhausen, Germany). From this, 50 nl were transferred into a black test plate (Greiner Bio-One, Frickenhausen, Germany). The test was started by the addition of 2 μl of a 2.5-fold concentrated BRD4(1) solution (final concentration typically 10 nM in the 5 μl of reaction volume) in aqueous assay buffer [50 mM HEPES pH 7.5, 50 mM sodium chloride (NaCl), 0.25 mM CHAPS and 0.05% serum albumin (BSA)] to the substances in the test plate. This was followed by a 10-minute incubation step at 22° C. for the pre-equilibration of putative complexes between BRD4(1) and the substances. Subsequently, 3 μl of a solution of 1.67 times the concentration (in assay buffer) consisting of Ac-H4 peptide (83.5 nM) and TR-FRET detection reagents [16.7 nM anti-6His-XL665 and 3.34 nM streptavidin cryptate (both from Cisbio Bioassays, Codolet, France), and 668 mM potassium fluoride (KF)] were added.
The mixture was then incubated in the dark at 22° C. for one hour and then at 4° C. for at least 3 hours and for no longer than overnight. The formation of BRD4(1)/Ac-H4 complexes was determined by the measurement of the resonance energy transfer from the streptavidin-Eu cryptate to the anti-6His-XL665 antibody present in the reaction. For this purpose, the fluorescence emission was measured at 620 nm and 665 nm after excitation at 330-350 nm in a TR-FRET measuring instrument, for example a Rubystar or Pherastar (both from BMG Lab Technologies, Offenburg, Germany) or a Viewlux (Perkin-Elmer). The ratio of the emissions at 665 nm and at 622 nm was taken as an indicator of the amount of BRD4(1)/Ac-H4 complexes formed.
The data (ratios) obtained were normalized, with 0% inhibition corresponding to the mean from the measurements for a set of controls (typically 32 data points) in which all the reagents were present. In these, in place of test substances, 50 nl of DMSO (100%) were used. Inhibition of 100% corresponded to the mean from the measurements for a set of controls (typically 32 data points) in which all the reagents except BRD4(1) were present. The IC50 was determined by regression analysis based on a 4-parameter equation (minimum, maximum, IC50, Hill; Y=Max+(Min−Max)/(1+(X/IC50)Hill).

Structure (SMILES) | IC50
CCOC(=O)N=S(C)(=O)c1cccc(Nc2ccc3c(n2)N(C2CCOCC2)[C@H](C)C(=O)N3C)c1 (mixture of isomers) [Example 10, Ethyl [(3-{[(3R)-1,3-dimethyl-2-oxo-4-(tetrahydro-2H-pyran-4-yl)-1,2,3,4-tetrahydropyrido[2,3-b]pyrazin-6-yl]amino}phenyl)(methyl)oxido-λ^6-sulphanylidene]carbamate] | 3630 nM
COc1ccc(S(C)(=O)=O)cc1Nc1ccc2c(n1)N(C1CCOCC1)[C@H](C)C(=O)N2C [Example 3, (3R)-6-{[2-Methoxy-5-(methylsulphonyl)phenyl]amino}-1,3-dimethyl-4-(tetrahydro-2H-pyran-4-yl)-3,4-dihydropyrido[2,3-b]pyrazin-2(1H)-one] | 79 nM
C[C@@H]1C(=O)N(C)c2ccc(Nc3cccc(S(C)(=O)=O)c3)nc2N1C1CCCCCC1 [Example 5, (3R)-4-Cycloheptyl-1,3-dimethyl-6-{[3-(methylsulphonyl)phenyl]amino}-3,4-dihydropyrido[2,3-b]pyrazin-2(1H)-one] | 152 nM
C[C@@H]1C(=O)N(C)c2ccc(Nc3cccc(S(=O)(=O)C4CC4)c3)nc2N1C1CCOCC1 [Example 6, (3R)-6-{[3-(Cyclopropylsulphonyl)phenyl]amino}-1,3-dimethyl-4-(tetrahydro-2H-pyran-4-yl)-3,4-dihydropyrido[2,3-b]pyrazin-2(1H)-one] | 24 nM
COc1ccc(S(=O)(=O)C2CC2)cc1Nc1ccc2c(n1)N(C1CCN(C)CC1)[C@H](C)C(=O)N2C [Example 12, (3R)-6-{[5-(Cyclopropylsulphonyl)-2-methoxyphenyl]amino}-1,3-dimethyl-4-(1-methylpiperidin-4-yl)-3,4-dihydropyrido[2,3-b]pyrazin-2(1H)-one] | 19 nM
COc1ccc(S(=O)(=O)C(C)C)cc1Nc1ccc2c(n1)N(C1CCN(C)CC1)[C@H](C)C(=O)N2C [Example 13, (3R)-6-{[5-(Isopropylsulphonyl)-2-methoxyphenyl]amino}-1,3-dimethyl-4-(1-methylpiperidin-4-yl)-3,4-dihydropyrido[2,3-b]pyrazin-2(1H)-one] | 16 nM
COc1ccc(S(=O)(=O)C2CC2)cc1Nc1ccc2c(n1)N(C(C)C)[C@H](C)C(=O)N2C [Example 15, (3R)-6-{[5-(Cyclopropylsulphonyl)-2-methoxyphenyl]amino}-4-isopropyl-1,3-dimethyl-3,4-dihydropyrido[2,3-b]pyrazin-2(1H)-one] | 73 nM
COc1ccc(S(=O)(=O)C(C)C)cc1Nc1ccc2c(n1)N(C(C)C)[C@H](C)C(=O)N2C [Example 16, (3R)-4-Isopropyl-6-{[5-(isopropylsulphonyl)-2-methoxyphenyl]amino}-1,3-dimethyl-3,4-dihydropyrido[2,3-b]pyrazin-2(1H)-one] | 88 nM
CC1C(=O)N(C)c2ccc(Nc3cccc(S(C)(=O)=O)c3)nc2N1c1ccccc1 (stereo not drawn) [Example 17, 1,3-Dimethyl-6-{[3-(methylsulphonyl)phenyl]amino}-4-phenyl-3,4-dihydropyrido[2,3-b]pyrazin-2(1H)-one] | 303 nM
CC(C)S(=O)(=O)c1cccc(Nc2ccc3c(n2)N(C2CCN(C)CC2)[C@H](C)C(=O)N3C)c1 [Example 19, (3R)-6-{[3-(Isopropylsulphonyl)phenyl]amino}-1,3-dimethyl-4-(1-methylpiperidin-4-yl)-3,4-dihydropyrido[2,3-b]pyrazin-2(1H)-one] | 15 nM
CC(C)S(=O)(=O)c1ccc(OC(F)(F)F)c(Nc2ccc3c(n2)N(C2CCN(C)CC2)[C@H](C)C(=O)N3C)c1 [Example 20, (3R)-6-{[5-(Isopropylsulphonyl)-2-(trifluoromethoxy)phenyl]amino}-1,3-dimethyl-4-(1-methylpiperidin-4-yl)-3,4-dihydropyrido[2,3-b]pyrazin-2(1H)-one] | 18 nM

Continued by falling IC50, values first:

IC50 | Structure (SMILES)
173 nM | COc1ccc(S(C)(=O)=O)cc1Nc1ccc2c(n1)N(C(C)C)[C@H](C)C(=O)N2C [Example 14, (3R)-4-Isopropyl-6-{[2-methoxy-5-(methylsulphonyl)phenyl]amino}-1,3-dimethyl-3,4-dihydropyrido[2,3-b]pyrazin-2(1H)-one]
94 nM | C[C@@H]1C(=O)N(C)c2ccc(Nc3cccc(S(C)(=O)=O)c3)nc2N1C1CCN(C)CC1 [Example 11, (3R)-1,3-Dimethyl-4-(1-methylpiperidin-4-yl)-6-{[3-(methylsulphonyl)phenyl]amino}-3,4-dihydropyrido[2,3-b]pyrazin-2(1H)-one]
93 nM | C[C@@H]1C(=O)N(C)c2ccc(Nc3ccc4c(c3)S(=O)(=O)CC4)nc2N1C1CCOCC1 [Example 4, (3R)-6-[(1,1-Dioxido-2,3-dihydro-1-benzothiophen-6-yl)amino]-1,3-dimethyl-4-(tetrahydro-2H-pyran-4-yl)-3,4-dihydropyrido[2,3-b]pyrazin-2(1H)-one]
83 nM | Cc1ccc(S(C)(=O)=O)cc1Nc1ccc2c(n1)N(C1CCOCC1)[C@H](C)C(=O)N2C [Example 2, (3R)-1,3-Dimethyl-6-{[2-methyl-5-(methylsulphonyl)phenyl]amino}-4-(tetrahydro-2H-pyran-4-yl)-3,4-dihydropyrido[2,3-b]pyrazin-2(1H)-one]
75 nM | C[C@@H]1C(=O)N(C)c2ccc(Nc3cccc(S(C)(=O)=O)c3)nc2N1C1CCOCC1 [Example 1, (3R)-1,3-Dimethyl-6-{[3-(methylsulphonyl)phenyl]amino}-4-(tetrahydro-2H-pyran-4-yl)-3,4-dihydropyrido[2,3-b]pyrazin-2(1H)-one]
28 nM | CC(C)S(=O)(=O)c1cccc(Nc2ccc3c(n2)N(C2CCOCC2)[C@H](C)C(=O)N3C)c1 [Example 7, (3R)-6-{[3-(Isopropylsulphonyl)phenyl]amino}-1,3-dimethyl-4-(tetrahydro-2H-pyran-4-yl)-3,4-dihydropyrido[2,3-b]pyrazin-2(1H)-one]
25 nM | COc1ccc(S(=O)(=O)C(C)C)cc1Nc1ccc2c(n1)N(C1CCOCC1)[C@H](C)C(=O)N2C [Example 9, (3R)-6-{[5-(Isopropylsulphonyl)-2-methoxyphenyl]amino}-1,3-dimethyl-4-(tetrahydro-2H-pyran-4-yl)-3,4-dihydropyrido[2,3-b]pyrazin-2(1H)-one]
23 nM | COc1ccc(S(=O)(=O)C2CC2)cc1Nc1ccc2c(n1)N(C1CCOCC1)[C@H](C)C(=O)N2C [Example 8, (3R)-6-{[5-(Cyclopropylsulphonyl)-2-methoxyphenyl]amino}-1,3-dimethyl-4-(tetrahydro-2H-pyran-4-yl)-3,4-dihydropyrido[2,3-b]pyrazin-2(1H)-one]
23 nM | COc1ccc(S(=O)(=O)C(F)(F)F)cc1Nc1ccc2c(n1)N(C1CCN(C)CC1)[C@H](C)C(=O)N2C [Example 21, (3R)-6-({2-Methoxy-5-[(trifluoromethyl)sulphonyl]phenyl}amino)-1,3-dimethyl-4-(1-methylpiperidin-4-yl)-3,4-dihydropyrido[2,3-b]pyrazin-2(1H)-one]
23 nM | COc1ccc(S(=O)(=O)C2CCOCC2)cc1Nc1ccc2c(n1)N(C1CCN(C)CC1)[C@H](C)C(=O)N2C [Example 22, (3R)-6-{[2-Methoxy-5-(tetrahydro-2H-pyran-4-ylsulphonyl)phenyl]amino}-1,3-dimethyl-4-(1-methylpiperidin-4-yl)-3,4-dihydropyrido[2,3-b]pyrazin-2(1H)-one]
